Source: patent publication US8883841B2, “Oncogenic ras-specific cytotoxic compound and methods of use thereof” (The Board of Regents of the University of Texas System, priority 2005, dated 2014)
Entries after “also recorded” stand apart in the source; their conditions may differ.

Legend:
A549CK8 = assay: Cell viability, A549CK8 lung cancer cells; type: cell-based, human; conditions: A549CK8, Lung
H1933 = assay: Cell viability, H1933 lung cancer cells; type: cell-based, human; conditions: H1933, Lung
AsPC-1 = assay: Cell viability, AsPC-1 pancreatic cancer cells; type: cell-based, human
CT116P53 = assay: Cell viability, CT116P53 colon cancer cells; type: cell-based, human; conditions: CT116P53, Colon
DLD1 = assay: Cell viability, DLD1 colon cancer cells; type: cell-based, human; conditions: DLD1, Colon
Heb46 = assay: Cell viability, Heb46 kidney cells; type: cell-based
A549 cells = assay: Cell viability, A549 lung cancer cells; type: cell-based, human
H2009 = assay: Cell viability, H2009 lung cancer cells; type: cell-based, human; conditions: H2009, Lung
H1299 cells = assay: Cell viability, H1299 lung cancer cells; type: cell-based, human
Capanc-1 = assay: Cell viability, Capanc-1 pancreatic cancer cells; type: cell-based, human
Heb44 = assay: Cell viability, Heb44 kidney cells; type: cell-based
HKE3 = assay: Cell viability, HKE3 colon cancer cells; type: cell-based, human; conditions: HKE3, Colon
miapac = assay: Cell viability, miapac pancreatic cancer cells; type: cell-based, human; conditions: miapac, Pancrease
Ovcar3 = assay: Cell viability, Ovcar3 ovary cancer cells; type: cell-based
H1395 = assay: Cell viability, H1395 lung cancer cells; type: cell-based, human
Hct116 = assay: Cell viability, Hct116 colon cancer cells; type: cell-based, human
H226B cells = assay: Cell viability, H226B lung cancer cells; type: cell-based, human; conditions: for IC50 (−LogM): H226B, Lung
H2122 = assay: Cell viability, H2122 lung cancer cells; type: cell-based, human

## O=Cc1cn(Cc2ccc(Cl)cc2)c2ccccc12 [Oncrasin K001, 1H-Indole-3-carboxaldehyde, 1-[(4-chlorophenyl)methyl]-(9CI)]
A549CK8
  IC50 (−LogM): 5.8 −LogM
H1933
  IC50 (−LogM): >4.5 −LogM
AsPC-1; ASPC1, Pancrease
  IC50 (−LogM): 5.5 −LogM
AsPC-1; K-Ras G12D mutation, read-out: IC50, AsPC-1
  IC50: 0.04 µM
CT116P53
  IC50 (−LogM): >4.5 −LogM
DLD1
  IC50 (−LogM): >4.5 −LogM
Heb46
  IC50 (−LogM): 6.1 −LogM
A549 cells; A549, Lung
  IC50 (−LogM): >4.5 −LogM
A549 cells; K-Ras G12S, read-out: IC50, A549 cells
  IC50: 1.58 µM
H2009
  IC50 (−LogM): >4.5 −LogM
H1299 cells; h1299, Lung
  IC50 (−LogM): >4.5 −LogM
H1299 cells; mutant N-Ras, listed as Oncrasin-1
  effect on H1299 cells: minimal effect; also recorded: not effective
Capanc-1; K-Ras G12V mutation, read-out: IC50, Capanc-1
  IC50: 0.42 µM
Capanc-1; capanc1, Pancrease
  IC50 (−LogM): 5 −LogM
Heb44
  IC50 (−LogM): 8 −LogM
HKE3; first HKE3 line
  IC50 (−LogM): 6.4 −LogM
HKE3; second HKE3 line
  IC50 (−LogM): 6 −LogM
miapac
  IC50 (−LogM): >4.5 −LogM
Ovcar3
  IC50 (−LogM): 5.6 −LogM
H1395; H1395, Lung
  IC50 (−LogM): >4.5 −LogM
H1395; wild-type Ras
  effect on H1395 cells: minimal effect
Hct116; G13D mutation in K-Ras, read-out: IC50, HCT116
  IC50: 3.1 µM
Hct116; Hct116, Colon
  IC50 (−LogM): 5.5 −LogM
H226B cells; first H226B line
  IC50 (−LogM): 7 −LogM
H226B cells; second H226B line
  IC50 (−LogM): 5.6 −LogM
H226B cells; Ras status not known, read-out: IC50, H226B cells
  IC50: 1.2 µM
H226B cells; ras status unknown
  effect on H226b cells: effective
H2122; H2122, Lung
  IC50 (−LogM): 6.1 −LogM
H2122; K-Ras G12C, read-out: IC50, H2122
  IC50: 0.79 µM
H2122; lung cancer cell line, G12C
  effect on H212 cells: highly effective
